Results: patent publication US10793563B2, “GCN2 inhibitors and uses thereof” (Merck Patent GmbH, priority 2018, dated 2020)

The compounds below were run against GCN2 kinase (Homo sapiens (Human), UniProt Q9P2K8) (assay: GCN2 Enzyme Inhibition Assay (Transcreener ADP2 fluorescence polarization)). Conditions: 280 μM ATP, 200 μM (RS)7 peptide, 4 nM GCN2, 25° C.
Chain of GCN2 kinase (Q9P2K8 whole entry): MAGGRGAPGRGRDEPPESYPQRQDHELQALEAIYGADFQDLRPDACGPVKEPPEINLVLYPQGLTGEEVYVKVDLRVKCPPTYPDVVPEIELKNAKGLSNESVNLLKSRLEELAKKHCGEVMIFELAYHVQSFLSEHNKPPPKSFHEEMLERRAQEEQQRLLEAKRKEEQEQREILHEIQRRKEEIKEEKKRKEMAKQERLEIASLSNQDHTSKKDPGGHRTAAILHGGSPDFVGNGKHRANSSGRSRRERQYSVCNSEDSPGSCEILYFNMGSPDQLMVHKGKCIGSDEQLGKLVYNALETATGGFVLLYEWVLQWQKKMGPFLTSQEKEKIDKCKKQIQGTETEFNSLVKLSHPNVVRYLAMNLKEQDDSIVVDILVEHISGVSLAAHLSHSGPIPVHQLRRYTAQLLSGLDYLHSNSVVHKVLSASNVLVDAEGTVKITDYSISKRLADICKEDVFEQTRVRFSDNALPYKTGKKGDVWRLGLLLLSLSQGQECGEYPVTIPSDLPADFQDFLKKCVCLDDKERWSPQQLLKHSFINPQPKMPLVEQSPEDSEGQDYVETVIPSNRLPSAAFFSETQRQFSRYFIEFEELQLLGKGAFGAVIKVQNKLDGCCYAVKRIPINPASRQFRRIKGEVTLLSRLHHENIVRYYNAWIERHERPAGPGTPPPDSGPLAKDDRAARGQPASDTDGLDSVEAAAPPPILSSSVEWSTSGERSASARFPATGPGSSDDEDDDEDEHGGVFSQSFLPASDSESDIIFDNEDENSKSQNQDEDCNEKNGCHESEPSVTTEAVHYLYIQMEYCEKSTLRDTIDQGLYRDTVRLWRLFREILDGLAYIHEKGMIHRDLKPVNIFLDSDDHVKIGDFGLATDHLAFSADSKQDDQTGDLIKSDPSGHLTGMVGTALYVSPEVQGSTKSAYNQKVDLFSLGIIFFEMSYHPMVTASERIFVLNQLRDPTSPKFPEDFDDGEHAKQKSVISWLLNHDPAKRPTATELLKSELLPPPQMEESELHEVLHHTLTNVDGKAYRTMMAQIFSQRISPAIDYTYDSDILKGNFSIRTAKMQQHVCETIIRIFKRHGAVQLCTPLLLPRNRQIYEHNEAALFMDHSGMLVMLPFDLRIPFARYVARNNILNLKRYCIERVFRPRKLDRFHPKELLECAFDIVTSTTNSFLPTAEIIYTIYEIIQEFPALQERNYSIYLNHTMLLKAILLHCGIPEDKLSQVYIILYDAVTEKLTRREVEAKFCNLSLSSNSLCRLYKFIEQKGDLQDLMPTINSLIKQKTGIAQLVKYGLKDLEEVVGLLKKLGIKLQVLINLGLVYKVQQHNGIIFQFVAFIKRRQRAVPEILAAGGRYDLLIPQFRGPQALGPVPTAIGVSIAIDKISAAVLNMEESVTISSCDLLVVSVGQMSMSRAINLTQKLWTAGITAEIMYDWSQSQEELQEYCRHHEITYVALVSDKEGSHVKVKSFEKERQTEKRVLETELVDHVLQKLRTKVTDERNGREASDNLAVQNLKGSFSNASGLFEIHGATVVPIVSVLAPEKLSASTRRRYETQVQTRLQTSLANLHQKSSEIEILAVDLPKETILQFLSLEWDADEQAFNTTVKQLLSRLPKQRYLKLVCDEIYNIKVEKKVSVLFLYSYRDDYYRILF
Assay type: biochemical
Outline: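 Transcreener ADP2 fluorescence polarization detection of ADP from 4 nM GCN2 with (RS)7 substrate in 25 mM Tris-HCl pH 7.5, 50 mM NaCl, 10 mM MgCl2, 1 mM DTT. Compound pre-incubated with enzyme 10 min at 25 °C; reaction started by ATP, run 1 h at 25 °C. IC50 and Ki(app) by tight-binding fit.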
For `Cc1oncc1C(=O)N1CCN(c2ccnc(-c3cnc4ccc(C(F)(F)F)cn34)n2)C[C@H]1c1cn[nH]c1` [I-550, (R)-(2-(1H-pyrazol-4-yl)-4-(2-(6-(trifluoromethyl)imidazo[1,2-a]pyridin-3-yl)pyrimidin-4-yl)piperazin-1-yl)(5-methylisoxazol-4-yl)methanone], the IC50 was 0.1 to 1 µM. Compound `Cc1nn(C)cc1[C@H]1C[C@H](C)CN(c2nccc(-c3cnc4ccc(C(F)(F)F)cn34)n2)C1` [I-139, 3-(2-((3R,5S)-3-(1,3-dimethyl-1H-pyrazol-4-yl)-5-methylpiperidin-1-yl)pyrimidin-4-yl)-6-(trifluoromethyl)imidazo[1,2-a]pyridine] has an IC50 of 0.1 to 1 µM. With `O=C(C1CCCN(c2ccnc(-c3cnc4ccc(C(F)(F)F)cn34)n2)C1)N1CCCC1` (centres unmarked) [I-131, pyrrolidin-1-yl(1-(2-(6-(trifluoromethyl)imidazo[1,2-a]pyridin-3-yl)pyrimidin-4-yl)piperidin-3-yl)methanone] the IC50 was 0.1 to 1 µM. Work on `CC1CN(c2ccnc(-c3cnc4ccc(C(F)(F)F)cn34)n2)CCC1n1cccn1` (centres unmarked) [I-379, 3-(4-(3-methyl-4-(1H-pyrazol-1-yl)piperidin-1-yl)pyrimidin-2-yl)-6-(trifluoromethyl)imidazo[1,2-a]pyridine] yielded an IC50 of 0.01 to 0.1 µM. Compound `COCCN1C(C)CN(c2ccnc(-c3cnc4ccc(C(F)(F)F)cn34)n2)CC1C` (centres unmarked) [I-335, 3-(4-(4-(2-methoxyethyl)-3,5-dimethylpiperazin-1-yl)pyrimidin-2-yl)-6-(trifluoromethyl)imidazo[1,2-a]pyridine] has an IC50 of 0.1 to 1 µM. For `Cc1cc(-c2cnc3ccc(Cl)cn23)nc(N2C[C@H](C)C[C@H](N=S(C)(C)=O)C2)n1` [I-168, (((3 S,5R)-1-(4-(6-chloroimidazo[1,2-a]pyridin-3-yl)-6-methylpyrimidin-2-yl)-5-methylpiperidin-3-yl)imino)dimethyl-λ6-sulfanone], the IC50 was 0.01 to 0.1 µM. In the case of `Fc1ccccc1CN1CCN(c2ccnc(-c3cnc4ccc(C(F)(F)F)cn34)n2)CC1c1cn[nH]c1` (centres unmarked) [I-459, 3-(4-(4-(2-fluorobenzyl)-3-(1H-pyrazol-4-yl)piperazin-1-yl)pyrimidin-2-yl)-6-(trifluoromethyl)imidazo[1,2-a]pyridine], the IC50 is reported as less than 0.01 µM. With `Cc1nn(C)cc1[C@H]1C[C@@H](C)CN(c2nccc(-c3cnc4ccc(C(F)(F)F)cn34)n2)C1` [I-142, 3-(2-((3R,5R)-3-(1,3-dimethyl-1H-pyrazol-4-yl)-5-methylpiperidin-1-yl)pyrimidin-4-yl)-6-(trifluoromethyl)imidazo[1,2-a]pyridine] the IC50 was 0.1 to 1 µM. With `Cc1[nH]ncc1[C@H]1CN(c2ccnc(-c3cnc4ccc(C(F)(F)F)cn34)n2)C[C@@H](C)O1` [I-125, (2R,6S)-2-methyl-6-(5-methyl-1H-pyrazol-4-yl)-4-(2-(6-(trifluoromethyl)imidazo[1,2-a]pyridin-3-yl)pyrimidin-4-yl)morpholine] the IC50 was less than 0.01 µM. In the case of `Cc1noc([C@H]2CN(c3ccnc(-c4cnc5ccc(C(F)F)cn45)n3)C[C@@H](C)O2)n1` [I-375, (2R,6R)-4-(2-(6-(difluoromethyl)imidazo[1,2-a]pyridin-3-yl)pyrimidin-4-yl)-2-methyl-6-(3-methyl-1,2,4-oxadiazol-5-yl)morpholine], the IC50 is reported as 0.01 to 0.1 µM. `Cc1nn(C)cc1[C@H]1CN(c2nccc(-c3cnc4ccc(C(F)(F)F)cn34)n2)C[C@@H](C)O1` [I-158, (2S,6R)-2-(1,3-dimethyl-1H-pyrazol-4-yl)-6-methyl-4-(4-(6-(trifluoromethyl)imidazo[1,2-a]pyridin-3-yl)pyrimidin-2-yl)morpholine] showed an IC50 of 0.01 to 0.1 µM. With `O=C(C1CC12CC2)N1CCN(c2ccnc(-c3cnc4ccc(C(F)(F)F)cn34)n2)CC1c1cn[nH]c1` (centres unmarked) [I-468, (2-(1H-pyrazol-4-yl)-4-(2-(6-(trifluoromethyl)imidazo[1,2-a]pyridin-3-yl)pyrimidin-4-yl)piperazin-1-yl)(spiro[2.2]pentan-1-yl)methanone] the IC50 was 0.1 to 1 µM. Work on `NC(=O)C1CCCN(c2nc(-c3cnc4ccc(C(F)(F)F)cn34)ncc2F)C1` (stereo in doubt) [I-282, (S)-1-(5-fluoro-2-(6-(trifluoromethyl)imidazo[1,2-a]pyridin-3-yl)pyrimidin-4-yl)piperidine-3-carboxamide] yielded an IC50 of 0.1 to 1 µM. `Cc1nn(C)cc1C(=O)N1CCN(c2ccnc(-c3cnc4ccc(C(F)(F)F)cn34)n2)C[C@@H]1C` [I-480, (S)-(1,3-dimethyl-1H-pyrazol-4-yl)(2-methyl-4-(2-(6-(trifluoromethyl)imidazo[1,2-a]pyridin-3-yl)pyrimidin-4-yl)piperazin-1-yl)methanone] was tested, and the IC50 was 0.1 to 1 µM. `NC(=O)[C@@H]1CN(c2ccnc(-c3cnc4ccc(Cl)cn34)n2)CCN1C1CC1` [I-350, (s)-4-(2-(6-chloroimidazo[1,2-a]pyridin-3-yl)pyrimidin-4-yl)-1-cyclopropylpiperazine-2-carboxamide] gave an IC50 of 0.1 to 1 µM. In the case of `C[C@H]1CN(c2ccnc(-c3cnc4ccc(C(F)(F)F)cn34)n2)C[C@@H](C(N)=O)O1` [I-264, (2S,6S)-6-methyl-4-(2-(6-(trifluoromethyl)imidazo[1,2-a]pyridin-3-yl)pyrimidin-4-yl)morpholine-2-carboxamide], the IC50 is reported as less than 0.01 µM. Compound `Cc1cnc(N2C[C@H](C)C[C@H](N=S(C)(C)=O)C2)nc1-c1cnc2ccc(Cl)cn12` [I-167, (((3 S,5R)-1-(4-(6-chloroimidazo[1,2-a]pyridin-3-yl)-5-methylpyrimidin-2-yl)-5-methylpiperidin-3-yl)imino)dimethyl-λ6-sulfanone] has an IC50 of 0.1 to 1 µM. `Cc1[nH]ncc1C1N[C@H](C)CN(c2nccc(-c3cnc4ccc(C(F)(F)F)cn34)n2)[C@@H]1C` (stereo partly drawn) [I-173, 3-(2-((2R,5R)-2,5-dimethyl-3-(5-methyl-1H-pyrazol-4-yl)piperazin-1-yl)pyrimidin-4-yl)-6-(trifluoromethyl)imidazo[1,2-a]pyridine] gave an IC50 of 0.1 to 1 µM. `Cc1nn(C)cc1[C@H]1CN(c2nccc(-c3cnc4ccc(C(F)(F)F)cn34)n2)C[C@H](C)O1` [I-156, (2S,6S)-2-(1,3-dimethyl-1H-pyrazol-4-yl)-6-methyl-4-(4-(6-(trifluoromethyl)imidazo[1,2-a]pyridin-3-yl)pyrimidin-2-yl)morpholine] showed an IC50 of 0.1 to 1 µM. In the case of `Cc1nn(C)cc1[C@@H]1C[C@H](C)CN(c2nccc(-c3cnc4ccc(C(F)(F)F)cn34)n2)C1` [I-141, 3-(2-((3S,5S)-3-(1,3-dimethyl-1H-pyrazol-4-yl)-5-methylpiperidin-1-yl)pyrimidin-4-yl)-6-(trifluoromethyl)imidazo[1,2-a]pyridine], the IC50 is reported as 0.1 to 1 µM. Compound `CC1(C(N)=O)CCN(c2ccnc(-c3cnc4ccc(C(F)(F)F)cn34)n2)CC1` [I-188, 4-methyl-1-(2-(6-(trifluoromethyl)imidazo[1,2-a]pyridin-3-yl)pyrimidin-4-yl)piperidine-4-carboxamide] has an IC50 of 0.01 to 0.1 µM. Work on `CC1C(C(N)=O)NCCN1c1ccnc(-c2cnc3ccc(C(F)F)cn23)n1` (centres unmarked) [I-378, 4-(2-(6-(difluoromethyl)imidazo[1,2-a]pyridin-3-yl)pyrimidin-4-yl)-3-methylpiperazine-2-carboxamide] yielded an IC50 of 0.01 to 0.1 µM. `CS(=O)(=O)NCC1NCCN(c2ccnc(-c3cnc4ccc(C(F)F)cn34)n2)C1C(F)(F)F` (centres unmarked) [I-496, N-((4-(2-(6-(difluoromethyl)imidazo[1,2-a]pyridin-3-yl)pyrimidin-4-yl)-3-(trifluoromethyl)piperazin-2-yl)methyl)methanesulfonamide] showed an IC50 of 0.1 to 1 µM. Work on `FC(F)(F)c1ccc2ncc(-c3ccnc(N4CCN(C[C@H]5CCCOC5)[C@@H](c5cn[nH]c5)C4)n3)n2c1` [I-542, 3-(2-((S)-3-(1H-pyrazol-4-yl)-4-(((R)-tetrahydro-2H-pyran-3-yl)methyl)piperazin-1-yl)pyrimidin-4-yl)-6-(trifluoromethyl)imidazo[1,2-a]pyridine] yielded an IC50 of less than 0.01 µM. Work on `C[C@@H]1CN(c2ccnc(-c3cnc4ccc(C(F)(F)F)cn34)n2)C[C@@H](C(N)=O)O1` [I-265, (2S,6R)-6-methyl-4-(2-(6-(trifluoromethyl)imidazo[1,2-a]pyridin-3-yl)pyrimidin-4-yl)morpholine-2-carboxamide] yielded an IC50 of 0.01 to 0.1 µM. Compound `COc1cc(C(=O)N2CCN(c3ccnc(-c4cnc5ccc(C(F)(F)F)cn45)n3)CC2c2cn[nH]c2)ccn1` (centres unmarked) [I-452, (2-(1H-pyrazol-4-yl)-4-(2-(6-(trifluoromethyl)imidazo[1,2-a]pyridin-3-yl)pyrimidin-4-yl)piperazin-1-yl)(2-methoxypyridin-4-yl)methanone] has an IC50 of 0.1 to 1 µM.

Same assay, conditions: Ki(app); 280 μM ATP, 200 μM (RS)7 peptide, 4 nM GCN2, 25° C.
With `Cn1cc(NC(=O)[C@H]2CCCN(c3ccnc(-c4cnc5cc(F)c(Cl)cn45)n3)C2)cn1` [I-77, (S)-1-[2-(6-Chloro-7-fluoro-imidazo[1,2-a]pyridin-3-yl)-pyrimidin-4-yl]-piperidine-3-carboxylic acid (1-methyl-1H-pyrazol-4-yl)-amide] the Ki was 0.1 to 1 µM. In the case of `N[C@H]1CCCN(c2ccnc(-c3cnc4ccc(Cl)cn34)n2)C1` [I-87, (3S)-1-(2-{6-chloroimidazo[1,2-a]pyridine-3-yl}pyrimidin-4-yl)piperidin-3-amine], the Ki is reported as 0.1 to 1 µM. Work on `Cc1nnc([C@@H]2CN(c3ccnc(-c4cnc5ccc(C#N)cn45)n3)C[C@H](C)O2)o1` (relative stereo) [I-94, 3-{4-[cis-2-methyl-6-(5-methyl-1,3,4-oxadiazol-2-yl)morpholin-4-yl]pyrimidin-2-yl}imidazo[1,2-a]pyridine-6-carbonitrile] yielded a Ki of 0.1 to 1 µM.
